Eleven molecules from ChEMBL document CHEMBL5523762, “Discovery of Potent and Selective G9a Degraders for the Treatment of Pancreatic Cancer” (J Med Chem, 2024) can be followed below.

The target in test [1] is T1, Histone-lysine N-methyltransferase EHMT2 (Homo sapiens) (UniProt Q96KQ7).
T1 sequence (whole entry): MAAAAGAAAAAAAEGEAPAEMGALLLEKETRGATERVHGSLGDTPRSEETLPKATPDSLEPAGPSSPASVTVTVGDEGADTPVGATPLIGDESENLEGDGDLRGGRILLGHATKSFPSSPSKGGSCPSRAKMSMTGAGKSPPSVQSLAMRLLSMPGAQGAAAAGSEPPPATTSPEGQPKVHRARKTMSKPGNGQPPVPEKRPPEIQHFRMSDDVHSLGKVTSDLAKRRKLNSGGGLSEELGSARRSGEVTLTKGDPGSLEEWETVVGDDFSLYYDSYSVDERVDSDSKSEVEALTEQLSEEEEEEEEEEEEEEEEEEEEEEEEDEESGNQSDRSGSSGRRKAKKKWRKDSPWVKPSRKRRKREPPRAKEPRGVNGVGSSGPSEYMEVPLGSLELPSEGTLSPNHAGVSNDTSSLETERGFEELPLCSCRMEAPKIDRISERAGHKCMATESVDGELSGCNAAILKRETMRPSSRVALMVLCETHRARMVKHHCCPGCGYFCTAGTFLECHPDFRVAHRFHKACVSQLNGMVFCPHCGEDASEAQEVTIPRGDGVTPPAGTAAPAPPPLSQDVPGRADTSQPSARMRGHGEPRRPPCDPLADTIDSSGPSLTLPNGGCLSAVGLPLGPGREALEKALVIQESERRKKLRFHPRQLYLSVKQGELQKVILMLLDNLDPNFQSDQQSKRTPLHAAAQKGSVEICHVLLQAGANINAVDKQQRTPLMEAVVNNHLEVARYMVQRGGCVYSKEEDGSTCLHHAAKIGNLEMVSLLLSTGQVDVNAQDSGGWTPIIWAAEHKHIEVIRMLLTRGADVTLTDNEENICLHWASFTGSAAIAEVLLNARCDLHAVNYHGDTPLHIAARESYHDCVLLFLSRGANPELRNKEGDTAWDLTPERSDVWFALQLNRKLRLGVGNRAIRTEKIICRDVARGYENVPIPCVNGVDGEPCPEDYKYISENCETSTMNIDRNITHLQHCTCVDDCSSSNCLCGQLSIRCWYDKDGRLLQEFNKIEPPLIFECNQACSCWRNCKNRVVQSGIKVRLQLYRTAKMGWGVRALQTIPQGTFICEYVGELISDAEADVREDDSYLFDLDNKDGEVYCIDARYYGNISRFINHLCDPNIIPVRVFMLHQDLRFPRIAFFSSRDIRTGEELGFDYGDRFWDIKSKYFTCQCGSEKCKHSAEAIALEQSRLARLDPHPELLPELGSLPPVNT
Nature of the test: Inhibition of N-terminal GST tagged human recombinant G9a (785 to 1210 residues) expressed in Escherichia coli using H3(1 to 21)K9me1 and SAM as substrates incubated for 1 hr by HTRF assay.

Test [2] deals with T2, Protein cereblon/Histone-lysine N-methyltransferase EHMT2 (Homo sapiens, UniProt Q96KQ7+Q96SW2). Nature of the test: PROTAC activity at CRBN/G9a in human PANC-1 cells assessed as induction of G9a degradation at 0.1 uM measured after 24 hrs by Western blot analysis. In kind it is cell-based. For orientation: A western blot detects proteins with antibodies after separation by electrophoresis.

For test [3], the target named is T2, Protein cereblon/Histone-lysine N-methyltransferase EHMT2. In words: PROTAC activity at CRBN/G9a in human PANC-1 cells assessed as induction of G9a degradation at 0.1 to 1 uM measured after 24 hrs by Western blot analysis. In kind it is cell-based. The settings on record: dose 0.1-1 µM.
Test [4] shares this target. In words: PROTAC activity at CRBN/G9a in human PANC-1 cells assessed as induction of G9a degradation at 1 uM by Western blot analysis. Type of test: cell-based.
Test [5] concerns the target T1, Histone-lysine N-methyltransferase EHMT2 (Homo sapiens). In words: Induction of G9a degradation in human PANC-1 cells assessed as reduction in G9a protein level at 10 uM by Western blot analysis. In kind it is cell-based.
Test [6] shares this target. In words: Induction of G9a degradation in human PANC-1 cells assessed as reduction in G9a protein level at 10 uM in presence of 1 uM UNC0638 by Western blot analysis. In kind it is cell-based.
Test [7] shares this target. Nature of the test: Induction of G9a degradation in human PANC-1 cells assessed as reduction in G9a protein level at 50 uM measured at 16 hrs by Western blot analysis. Type of test: cell-based.

The source made the active and inactive calls. The rule behind the calls is not given here.

T2 sequence (Q96SW2 whole entry partner, one chain of several): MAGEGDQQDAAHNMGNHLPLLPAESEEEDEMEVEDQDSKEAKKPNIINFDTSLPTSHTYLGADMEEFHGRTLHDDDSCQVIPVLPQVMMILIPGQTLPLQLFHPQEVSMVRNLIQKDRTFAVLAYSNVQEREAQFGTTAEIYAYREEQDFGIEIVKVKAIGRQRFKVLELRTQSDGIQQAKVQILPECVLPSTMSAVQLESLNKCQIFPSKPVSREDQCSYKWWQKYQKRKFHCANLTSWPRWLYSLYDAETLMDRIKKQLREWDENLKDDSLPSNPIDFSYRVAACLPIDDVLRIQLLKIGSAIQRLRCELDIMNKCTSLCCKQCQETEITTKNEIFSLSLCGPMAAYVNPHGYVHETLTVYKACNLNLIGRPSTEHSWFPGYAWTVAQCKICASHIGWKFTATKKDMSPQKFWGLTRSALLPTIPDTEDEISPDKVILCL

For the molecule `COc1cc2c(NC3CCN(CCCC(=O)NCCCCCCCCNc4ccc5c(c4)C(=O)N(C4CCC(=O)NC4=O)C5=O)CC3)nc(C3CCCCC3)nc2cc1OCCCN1CCCC1` (stereo not given), the inhibition entry in test [1] is “Active”.

`COc1cc2c(NC3CCN(CCCC(=O)NCCOCCOCCNc4cccc5c4C(=O)N(C4CCC(=O)NC4=O)C5=O)CC3)nc(C3CCCCC3)nc2cc1OCCCN1CCCC1` (stereo not given): the inhibition result in test [1] was “Active”.

With `COc1cc2c(NC3CCN(CCCC(=O)NCCCCCCCCCNc4cccc5c4C(=O)N(C4CCC(=O)NC4=O)C5=O)CC3)nc(C3CCCCC3)nc2cc1OCCCN1CCCC1` (stereo not given), the outcome in test [2] was inactive. For the same molecule, the inhibition result in test [1] is “Active”.

For the molecule `COc1cc2c(NC3CCN(C(=O)CCC(=O)NCCCCCCCCNc4cccc5c4C(=O)N(C4CCC(=O)NC4=O)C5=O)CC3)nc(C3CCCCC3)nc2cc1OCCCN1CCCC1` (stereo not given), the result in test [3] was inactive.

As for `COc1cc2c(NC3CCN(CCCC(=O)NCCCCCCCCNc4cccc5c4C(=O)N(C4CCC(=O)N(C)C4=O)C5=O)CC3)nc(C3CCCCC3)nc2cc1OCCCN1CCCC1` (stereo not given), in test [4], the result was inactive.

In the case of `COc1cc2c(NC3CCN(CCCC(=O)NCCCCCCCCNc4cccc5c4C(=O)N(C4CCC(=O)NC4=O)C5=O)CC3)nc(C3CCCCC3)nc2cc1OCCCN1CCC(F)(F)CC1` (stereo not given), the result in test [4] was inactive.

With `COc1cc2c(NC3CCN(CCCC(=O)NCCCCCCCCCCNc4cccc5c4C(=O)N(C4CCC(=O)NC4=O)C5=O)CC3)nc(C3CCCCC3)nc2cc1OCCCN1CCCC1` (stereo not given), in test [2], the outcome was inactive. Further, the inhibition entry in test [1] is “Active”.

`O=C1CCC(N2C(=O)c3ccccc3C2=O)C(=O)N1` (stereo not given): the outcome in test [5] and in test [6] was inactive.

With `N=C(NCCCCCCNC(=N)NC(=N)Nc1ccc(Cl)cc1)NC(=N)Nc1ccc(Cl)cc1`, the outcome in test [7] was Active.

With `COc1cc2c(NC3CCN(CCCC(=O)NCCCCCCCNc4cccc5c4C(=O)N(C4CCC(=O)NC4=O)C5=O)CC3)nc(C3CCCCC3)nc2cc1OCCCN1CCCC1` (stereo not given), in test [2], the outcome was inactive. Besides, the inhibition entry in test [1] was “Active”.

Regarding `COc1cc2c(NC3CCN(CCCC(=O)NCCCCCCCCOc4cccc5c4C(=O)N(C4CCC(=O)NC4=O)C5=O)CC3)nc(C3CCCCC3)nc2cc1OCCCN1CCCC1` (stereo not given), the inhibition result in test [1] is “Active”.
